Results from the supplement of paper PMC10307832.

Key:
Experiment in all cases: relative viability (nuclei count vs DMSO), 5 days (fraction); higher = more cells survive
AGI-6780 + OSI-027 = compound: O=C(Nc1cccc(C(F)(F)F)c1)Nc1cc(S(=O)(=O)NC2CC2)ccc1-c1ccsc1 [AGI-6780] + COc1cccc2cc(-c3nc([C@H]4CC[C@H](C(=O)O)CC4)n4ncnc(N)c34)[nH]c12 [OSI-027] (partner 0.5 µM)
Method in brief: (§1)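 Dosing by pin tool came one day after lung cancer cell lines were seeded in 1536-well plates, using either one drug or a fixed anchor-drug dose plus five library-drug doses (not always all listed) in √10 steps. After 5 days, nuclei were counted on 4× images. Relative viability is treated-well nuclei count divided by vehicle-well nuclei count, and values are medians of duplicate plates.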

AGI-6780 + Lapatinib = compound: O=C(Nc1cccc(C(F)(F)F)c1)Nc1cc(S(=O)(=O)NC2CC2)ccc1-c1ccsc1 [AGI-6780] + CS(=O)(=O)CCNCc1ccc(-c2ccc3ncnc(Nc4ccc(OCc5cccc(F)c5)c(Cl)c4)c3c2)o1 [Lapatinib] (partner 2 µM)
Method in brief: as §1

AGI-6780 + Linsitinib = compound: O=C(Nc1cccc(C(F)(F)F)c1)Nc1cc(S(=O)(=O)NC2CC2)ccc1-c1ccsc1 [AGI-6780] + C[C@]1(O)C[C@@H](c2nc(-c3ccc4ccc(-c5ccccc5)nc4c3)c3c(N)nccn32)C1 [Linsitinib] (partner 1 µM)
Method in brief: as §1

AGI-6780 + Alpelisib = compound: O=C(Nc1cccc(C(F)(F)F)c1)Nc1cc(S(=O)(=O)NC2CC2)ccc1-c1ccsc1 [AGI-6780] + Cc1nc(NC(=O)N2CCC[C@H]2C(N)=O)sc1-c1ccnc(C(C)(C)C(F)(F)F)c1 [Alpelisib] (partner 2 µM)
Method in brief: as §1

Row | Cell Line | relative viability (AGI-6780 + OSI-027; first compound 0.08 µM) | relative viability (AGI-6780 + OSI-027; first compound 0.253 µM) | relative viability (AGI-6780 + OSI-027; first compound 0.8 µM) | relative viability (AGI-6780 + OSI-027; first compound 2.53 µM) | relative viability (AGI-6780 + OSI-027; first compound 8 µM) | relative viability (AGI-6780 + Lapatinib; first compound 0.08 µM) | relative viability (AGI-6780 + Lapatinib; first compound 0.253 µM) | relative viability (AGI-6780 + Lapatinib; first compound 0.8 µM) | relative viability (AGI-6780 + Lapatinib; first compound 2.53 µM) | relative viability (AGI-6780 + Lapatinib; first compound 8 µM) | relative viability (AGI-6780 + Linsitinib; first compound 0.08 µM) | relative viability (AGI-6780 + Linsitinib; first compound 0.253 µM) | relative viability (AGI-6780 + Linsitinib; first compound 0.8 µM) | relative viability (AGI-6780 + Linsitinib; first compound 2.53 µM) | relative viability (AGI-6780 + Linsitinib; first compound 8 µM) | relative viability (AGI-6780 + Alpelisib; first compound 0.08 µM) | relative viability (AGI-6780 + Alpelisib; first compound 0.253 µM) | relative viability (AGI-6780 + Alpelisib; first compound 0.8 µM) | relative viability (AGI-6780 + Alpelisib; first compound 2.53 µM) | relative viability (AGI-6780 + Alpelisib; first compound 8 µM)
1 | NCI-H661 | 0.722 | 0.745 | 0.933 | 0.661 | 0.772 | 0.549 | 0.518 | 0.616 | 0.474 | 0.516 | 0.624 | 0.53 | 0.599 | 0.458 | 0.534 | 0.483 | 0.713 | 0.791 | 0.51 | 0.59
2 | NCI-H727 | 0.639 | 0.821 | 0.617 | 0.494 | 0.685 | 1.05 | 0.961 | 0.93 | 0.712 | 0.811 | 0.285 | 0.331 | 0.325 | 0.235 | 0.285 | 0.679 | 0.588 | 0.742 | 0.491 | 0.548
3 | NCI-H838 | 0.424 | 0.434 | 0.357 | 0.378 | 0.39 | 1.18 | 0.99 | 1.05 | 0.871 | 1.23 | 1.12 | 0.964 | 1.07 | 0.851 | 0.908 | 1.05 | 0.927 | 1.01 | 0.825 | 0.959
4 | NCI-H1355 | 0.444 | 0.456 | 0.422 | 0.303 | 0.401 | 1.03 | 1.04 | 0.944 | 0.685 | 0.96 | 0.842 | 0.835 | 0.831 | 0.665 | 0.821 | 0.98 | 0.894 | 0.848 | 0.696 | 0.787
5 | NCI-H1395 | 0.632 | 0.846 | 0.674 | 0.53 | 0.662 | 0.941 | 1.06 | 1.01 |  | 1.04 | 1.14 | 1.16 | 1.12 |  | 1.14 | 1.14 | 1.15 | 1.23 |  | 0.969
6 | NCI-H1437 | 0.851 | 0.86 | 0.859 | 0.898 | 0.927 | 0.825 | 0.834 | 0.863 | 0.838 | 0.941 | 1.11 | 1.01 | 1.07 | 1.03 | 0.983 | 1.07 | 0.888 | 1.04 | 0.882 | 0.885
7 | NCI-H1563 | 0.784 | 0.752 | 0.805 | 0.666 | 0.728 | 1.03 | 0.924 | 0.987 | 0.881 | 0.903 | 1.27 | 1.22 | 1.24 | 1.11 | 1.08 | 0.923 | 0.934 | 0.846 | 0.992 | 0.874
8 | NCI-H1651 | 0.659 | 0.684 | 0.731 | 0.691 | 0.661 | 0.83 | 0.911 | 0.959 | 0.805 | 1.04 | 0.959 | 0.966 | 0.982 | 0.876 | 0.837 | 0.9 | 0.963 | 0.931 | 0.736 | 0.886
